According to article PMC12454493, “Insight on novel sulfamoylphenyl pyrazole derivatives as anticancer carbonic anhydrase inhibitors” (Molecular Diversity, 2024):
“And” between values parts separate entries of the source, which are not always exact repeats. Equal entries are not always repeated.

What was measured:
HCT-15 = assay: NCI-60 one-dose SRB screen (Colon Cancer); format: cell-based; conditions: Homo sapiens, single dose 10 µM, 48 h, read-out: Growth inhibition percent (GI %)
Method: (§1) The National Cancer Institute (NCI) Developmental Therapeutic Program (www.dtp.nci.nih.gov) selected the 20 novel synthesized compounds 4a-e, 5a-e, 6a-c, 9a-e, 10 and 11 to test for their anticancer activity at a single dose of 10 µM using SRB assay. […] Supplementary Data S3; Table S1 presents the detailed screening results of the most promising compounds. The preliminary screening’s detailed results for the remaining compounds are elucidated in the (Supplementary Data S3; Table S2).
(§2) The guidelines of the Drug Evaluation Branch’s protocol at the NCI in Bethesda served as the basis for the in vitro anticancer screening assays. at one dose 10 µM against a panel of 60 cancer cell lines. The human tumor cell lines used belonged to nine panels: leukemia, melanoma, lung, colon, CNS, ovarian, renal, prostate and breast cancers using the sulforhodamine B (SRB) assay in a 48 h drug exposure protocol.

HCC-2998 = assay: NCI-60 one-dose SRB screen (Colon Cancer); format: cell-based; conditions: Homo sapiens, single dose 10 µM, 48 h, read-out: Growth inhibition percent (GI %)
Method: as §1, §2

KM12 = assay: NCI-60 one-dose SRB screen (Colon Cancer); format: cell-based; conditions: Homo sapiens, single dose 10 µM, 48 h, read-out: Growth inhibition percent (GI %)
Method: as §1, §2

COLO 205 = assay: NCI-60 one-dose SRB screen (Colon Cancer); format: cell-based; conditions: Homo sapiens, single dose 10 µM, 48 h, read-out: Growth inhibition percent (GI %)
Method: as §1, §2

HT29 = assay: NCI-60 one-dose SRB screen (Colon Cancer); format: cell-based; conditions: Homo sapiens, HT-29, single dose 10 µM, 48 h, read-out: Growth inhibition percent (GI %)
Method: as §1, §2

SW-620 = assay: NCI-60 one-dose SRB screen (Colon Cancer); format: cell-based; conditions: Homo sapiens, single dose 10 µM, 48 h, read-out: Growth inhibition percent (GI %)
Method: as §1, §2

HCT-116 = assay: NCI-60 one-dose SRB screen (Colon Cancer); format: cell-based; conditions: Homo sapiens, single dose 10 µM, 48 h, read-out: Growth inhibition percent (GI %)
Method: as §1, §2

SK-MEL-5 = assay: NCI-60 one-dose SRB screen (Melanoma); format: cell-based; conditions: Homo sapiens, single dose 10 µM, 48 h, read-out: Growth inhibition percent (GI %)
Method: as §1, §2

MDA-MB-435 = assay: NCI-60 one-dose SRB screen (Melanoma); format: cell-based; conditions: Homo sapiens, single dose 10 µM, 48 h, read-out: Growth inhibition percent (GI %)
Method: as §1, §2

UACC-62 = assay: NCI-60 one-dose SRB screen (Melanoma); format: cell-based; conditions: Homo sapiens, single dose 10 µM, 48 h, read-out: Growth inhibition percent (GI %)
Method: as §1, §2

MALME-3M = assay: NCI-60 one-dose SRB screen (Melanoma); format: cell-based; conditions: Homo sapiens, single dose 10 µM, 48 h, read-out: Growth inhibition percent (GI %)
Method: as §1, §2

UACC-257 = assay: NCI-60 one-dose SRB screen (Melanoma); format: cell-based; conditions: Homo sapiens, single dose 10 µM, 48 h, read-out: Growth inhibition percent (GI %)
Method: as §1, §2

SK-MEL-28 = assay: NCI-60 one-dose SRB screen (Melanoma); format: cell-based; conditions: Homo sapiens, single dose 10 µM, 48 h, read-out: Growth inhibition percent (GI %)
Method: as §1, §2

LOX IMVI = assay: NCI-60 one-dose SRB screen (Melanoma); format: cell-based; conditions: Homo sapiens, single dose 10 µM, 48 h, read-out: Growth inhibition percent (GI %)
Method: as §1, §2

M14 = assay: NCI-60 one-dose SRB screen (Melanoma); format: cell-based; conditions: Homo sapiens, single dose 10 µM, 48 h, read-out: Growth inhibition percent (GI %)
Method: as §1, §2

NCI-H522 = assay: NCI-60 one-dose SRB screen (Non-Small Cell Lung Cancer); format: cell-based; conditions: Homo sapiens, single dose 10 µM, 48 h, read-out: Growth inhibition percent (GI %)
Method: as §1, §2

NCI-H226 = assay: as above; format: cell-based; conditions: Homo sapiens, single dose 10 µM, 48 h, read-out: Growth inhibition percent (GI %)
Method: as §1, §2

HOP-62 = assay: as above; format: cell-based; conditions: Homo sapiens, single dose 10 µM, 48 h, read-out: Growth inhibition percent (GI %)
Method: as §1, §2

NCI-H460 = assay: as above; format: cell-based; conditions: Homo sapiens, single dose 10 µM, 48 h, read-out: Growth inhibition percent (GI %)
Method: as §1, §2

NCI-H23 = assay: as above; format: cell-based; conditions: Homo sapiens, single dose 10 µM, 48 h, read-out: Growth inhibition percent (GI %)
Method: as §1, §2

NCI-H322M = assay: as above; format: cell-based; conditions: Homo sapiens, single dose 10 µM, 48 h, read-out: Growth inhibition percent (GI %)
Method: as §1, §2

EKVX = assay: as above; format: cell-based; conditions: Homo sapiens, single dose 10 µM, 48 h, read-out: Growth inhibition percent (GI %)
Method: as §1, §2

A549/ATCC = assay: as above; format: cell-based; conditions: Homo sapiens, single dose 10 µM, 48 h, read-out: Growth inhibition percent (GI %)
Method: as §1, §2

OVCAR-4 = assay: NCI-60 one-dose SRB screen (Ovarian cancer); format: cell-based; conditions: Homo sapiens, single dose 10 µM, 48 h, read-out: Growth inhibition percent (GI %)
Method: as §1, §2

IGROV1 = assay: NCI-60 one-dose SRB screen (Ovarian cancer); format: cell-based; conditions: Homo sapiens, IGROV-1, single dose 10 µM, 48 h, read-out: Growth inhibition percent (GI %)
Method: as §1, §2

OVCAR-3 = assay: NCI-60 one-dose SRB screen (Ovarian cancer); format: cell-based; conditions: Homo sapiens, single dose 10 µM, 48 h, read-out: Growth inhibition percent (GI %)
Method: as §1, §2

OVCAR-8 = assay: NCI-60 one-dose SRB screen (Ovarian cancer); format: cell-based; conditions: Homo sapiens, single dose 10 µM, 48 h, read-out: Growth inhibition percent (GI %)
Method: as §1, §2

OVCAR-5 = assay: NCI-60 one-dose SRB screen (Ovarian cancer); format: cell-based; conditions: Homo sapiens, single dose 10 µM, 48 h, read-out: Growth inhibition percent (GI %)
Method: as §1, §2

SK-OV-3 = assay: NCI-60 one-dose SRB screen (Ovarian cancer); format: cell-based; conditions: Homo sapiens, single dose 10 µM, 48 h, read-out: Growth inhibition percent (GI %)
Method: as §1, §2

SF-539 = assay: NCI-60 one-dose SRB screen (CNS Cancer); format: cell-based; conditions: Homo sapiens, single dose 10 µM, 48 h, read-out: Growth inhibition percent (GI %)
Method: as §1, §2

SNB-75 = assay: NCI-60 one-dose SRB screen (CNS Cancer); format: cell-based; conditions: Homo sapiens, single dose 10 µM, 48 h, read-out: Growth inhibition percent (GI %)
Method: as §1, §2

SF-268 = assay: NCI-60 one-dose SRB screen (CNS Cancer); format: cell-based; conditions: Homo sapiens, single dose 10 µM, 48 h, read-out: Growth inhibition percent (GI %)
Method: as §1, §2

SNB-19 = assay: NCI-60 one-dose SRB screen (CNS Cancer); format: cell-based; conditions: Homo sapiens, single dose 10 µM, 48 h, read-out: Growth inhibition percent (GI %)
Method: as §1, §2

U251 = assay: NCI-60 one-dose SRB screen (CNS Cancer); format: cell-based; conditions: Homo sapiens, U-251, single dose 10 µM, 48 h, read-out: Growth inhibition percent (GI %)
Method: as §1, §2

SF-295 = assay: NCI-60 one-dose SRB screen (CNS Cancer); format: cell-based; conditions: Homo sapiens, single dose 10 µM, 48 h, read-out: Growth inhibition percent (GI %)
Method: as §1, §2

hCA XII = hCA XII (Homo sapiens, UniProt O43570); assay: CA inhibitory activity, spectrophotometric p-NPA assay; format: biochemical; conditions: p-NPA substrate, pH 7.5, 25 °C, triplicate; read-out: IC50 (µM) ± SD hCA XII
hCA IX = hCA IX (Homo sapiens, UniProt Q16790); assay: as above; format: biochemical; conditions: p-NPA substrate, pH 7.5, 25 °C, triplicate; read-out: IC50 (µM) ± SD hCA IX
MOLT-4 = assay: NCI-60 one-dose SRB screen (Leukemia); format: cell-based; conditions: Homo sapiens, single dose 10 µM, 48 h, read-out: Growth inhibition percent (GI %)
Method: as §1, §2

SR = assay: NCI-60 one-dose SRB screen (Leukemia); format: cell-based; conditions: Homo sapiens, single dose 10 µM, 48 h, read-out: Growth inhibition percent (GI %)
Method: as §1, §2

K-562 = assay: NCI-60 one-dose SRB screen (Leukemia); format: cell-based; conditions: Homo sapiens, K562, single dose 10 µM, 48 h, read-out: Growth inhibition percent (GI %)
Method: as §1, §2

RPMI-8226 = assay: NCI-60 one-dose SRB screen (Leukemia); format: cell-based; conditions: Homo sapiens, single dose 10 µM, 48 h, read-out: Growth inhibition percent (GI %)
Method: as §1, §2

HL-60(TB) = assay: NCI-60 one-dose SRB screen (Leukemia); format: cell-based; conditions: Homo sapiens, single dose 10 µM, 48 h, read-out: Growth inhibition percent (GI %)
Method: as §1, §2

CCRF-CEM = assay: NCI-60 one-dose SRB screen (Leukemia); format: cell-based; conditions: Homo sapiens, single dose 10 µM, 48 h, read-out: Growth inhibition percent (GI %)
Method: as §1, §2

Chain of hCA XII (O43570 25-354): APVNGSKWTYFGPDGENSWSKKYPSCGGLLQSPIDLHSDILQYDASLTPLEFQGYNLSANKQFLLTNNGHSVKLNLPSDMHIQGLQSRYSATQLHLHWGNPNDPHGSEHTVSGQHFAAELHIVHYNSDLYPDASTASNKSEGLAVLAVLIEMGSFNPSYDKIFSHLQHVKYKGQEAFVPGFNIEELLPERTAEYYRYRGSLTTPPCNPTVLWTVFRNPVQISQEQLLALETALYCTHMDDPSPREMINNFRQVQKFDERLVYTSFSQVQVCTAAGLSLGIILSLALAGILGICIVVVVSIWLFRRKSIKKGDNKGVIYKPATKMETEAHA

Compound: COc1ccc(-c2nn(-c3ccc(S(N)(=O)=O)cc3)cc2C(=O)OCC(=O)Nc2ccc(S(N)(=O)=O)cc2)cc1 [Compound 4c, 2-Oxo-2-[(4-sulfamoylphenyl)amino] ethyl 3-(4-methoxyphenyl)-1-(4-sulfamoylphenyl)-1H-pyrazole-4-carboxylate]
- inhibition at 10 µM (HCT-15): < 5%
- inhibition at 10 µM (HCC-2998): < 5%
- inhibition at 10 µM (KM12): < 5%
- inhibition at 10 µM (COLO 205): < 5%
- inhibition at 10 µM (HT29): < 5%
- inhibition at 10 µM (SW-620): < 5%
- inhibition at 10 µM (HCT-116): 37.5%
- inhibition at 10 µM (SK-MEL-5): < 5%
- inhibition at 10 µM (MDA-MB-435): < 5%
- inhibition at 10 µM (UACC-62): < 5%
- inhibition at 10 µM (MALME-3M): < 5%
- inhibition at 10 µM (UACC-257): < 5%
- inhibition at 10 µM (SK-MEL-28): < 5%
- inhibition at 10 µM (LOX IMVI): < 5%
- inhibition at 10 µM (M14): 43.3%
- inhibition at 10 µM (NCI-H522): < 5%
- inhibition at 10 µM (NCI-H226): < 5%
- inhibition at 10 µM (HOP-62): < 5%
- inhibition at 10 µM (NCI-H460): < 5%
- inhibition at 10 µM (NCI-H23): < 5%
- inhibition at 10 µM (NCI-H322M): < 5%
- inhibition at 10 µM (EKVX): < 5%
- inhibition at 10 µM (A549/ATCC): < 5%
- inhibition at 10 µM (OVCAR-4): < 5%
- inhibition at 10 µM (IGROV1): < 5%
- inhibition at 10 µM (OVCAR-3): < 5%
- inhibition at 10 µM (OVCAR-8): < 5%
- inhibition at 10 µM (OVCAR-5): < 5%
- inhibition at 10 µM (SK-OV-3): < 5%
- inhibition at 10 µM (SF-539): < 5%
- inhibition at 10 µM (SNB-75): 28.7%
- inhibition at 10 µM (SF-268): < 5%
- inhibition at 10 µM (SNB-19): < 5%
- inhibition at 10 µM (U251): < 5%
- inhibition at 10 µM (SF-295): < 5%
- IC50 (hCA XII): 0.41 µM and 0.415 µM
- IC50 (hCA IX): 0.17 µM and 0.175 µM
- inhibition at 10 µM (MOLT-4): < 5%
- inhibition at 10 µM (SR): < 5%
- inhibition at 10 µM (K-562): 9.61%
- inhibition at 10 µM (RPMI-8226): 9.19%
- inhibition at 10 µM (HL-60(TB)): 13.9%
- inhibition at 10 µM (CCRF-CEM): < 5%
